Measurements reported in EPA's ToxValDB 9.5 (doi:10.2903/j.efsa.2020.6227).

Experiments:
Daphnia magna = conditions: chronic/long-term; duration: 21 days
Tagia sp. = conditions: chronic/long-term; duration: 56 days; reproduction
Neomysis kadiakensis = conditions: acute; duration: 96 hours; mortality
Anas platyrhynchos = conditions: oral
Bibionidae = conditions: chronic/long-term; duration: 28 days
Apis mellifera = conditions: acute, duration: 24 hours, mortality
Folsomia candida = conditions: chronic/long-term; duration: 28 days; reproduction

CC[C@H](C)[C@H]1O[C@]2(C=C[C@@H]1C)C[C@@H]1C[C@@H](C/C=C(\C)[C@@H](O[C@H]3C[C@H](OC)[C@@H](O[C@H]4C[C@H](OC)[C@@H](O)[C@H](C)O4)[C@H](C)O3)[C@@H](C)/C=C/C=C3\CO[C@@H]4[C@H](O)C(C)=C[C@@H](C(=O)O1)[C@]34O)O2.CO[C@H]1C[C@H](O[C@H]2[C@H](C)O[C@@H](O[C@@H]3/C(C)=C/C[C@@H]4C[C@@H](C[C@]5(C=C[C@H](C)[C@@H](C(C)C)O5)O4)OC(=O)[C@@H]4C=C(C)[C@@H](O)[C@H]5OC/C(=C\C=C\[C@@H]3C)[C@]54O)C[C@@H]2OC)O[C@@H](C)[C@@H]1O [Abamectin]
NOEC (Daphnia magna): 0.0067 µg/L
LC50 (Oncorhynchus mykiss; acute, duration: 96 hours, mortality): 2.5 ng/mL
NOEC (Oncorhynchus mykiss; chronic/long-term, duration: 72 days): 0.52 µg/L
NOEC (Tagia sp.): < 0.036 mg/kg
LC50 (Neomysis kadiakensis): 0.02 ng/mL
LD50 (Anas platyrhynchos; acute, unspecified, mortality): 26 mg/kg-day
NOEC (Anas platyrhynchos; reproductive, feed): 6 mg/kg
NOEC (Bibionidae): 3.3 µg/kg
LD50 (Apis mellifera; dermal): 0.001 µg/piece
LD50 (Apis mellifera; oral, unspecified): 0.004 µg/piece
NOEC (Folsomia candida): 0.04 mg/kg
LD50 (Rattus norvegicus; acute, oral, M, mortality): 8.7 mg/kg-day
NOAEL (Rattus norvegicus; developmental, development): 0.12 mg/kg-day
